Key:
[1] = Growth inhibition of human GRC1 cells at 0.5 g/L after 96 hrs by MTT assay relative to control; type: functional; conditions: read-out: GI
[2] = Growth inhibition of human GRC1 cells at 1.5 g/L after 48 hrs by MTT assay relative to control; type: functional; conditions: read-out: GI
CCRF-CEM [3] = assay: Induction of apoptosis in human CCRF-CEM cells at antiproliferative IC50 after 72 hrs by Annexin V/propidium iodide staining based assay (reference value: 0.8%); type: functional
HT-29 [4] = assay: Growth inhibition of human HT-29 cells at 0.5 mg/ml by MTT assay relative to control; type: functional; conditions: read-out: GI
BXPC-3 = assay: Induction of apoptosis in human BxPC3 cells at 0.25 mg/ml by flow cytometry (reference value: 2.81%); type: functional
SGC-7901 = assay: Induction of apoptosis in human SGC7901 cells at […] after 48 hrs by propidium iodide staining based flow cytometry (reference value: 3.54 +/- 0.47%); type: functional
HK-2 = assay: Antiproliferative activity against human HK2 cells after 48 hrs by CCK8 assay; type: functional, cell-based; conditions: HK-2, 48 h
UMR108 [5] = assay: Growth inhibition of rat UMR108 cells assessed as cell proliferation at 1.5 mg/ml after 48 hrs by MTT assay (reference value: 0.404 +/- 0.008%); type: functional; conditions: UMR108, 48 h, read-out: Activity
HT-29 [6] = assay: Growth inhibition of human HT-29 cells at 16 ml/L after 48 hrs by MTT assay relative to control; type: functional
HepG2 [7] = assay: Antiproliferative activity against human HepG2 cells at 0.8 mg/ml after 48 hrs relative to control; type: functional
HT-29 [8] = assay: Growth inhibition of human HT-29 cells at 8 ml/L after 24 hrs by MTT assay relative to control; type: functional
U2OS = assay: Growth inhibition of human U2OS cells at 3.2 mg/ml after 48 hrs by MTT assay relative to control; type: functional; conditions: read-out: GI
RPMI-8226 [9] = assay: Growth inhibition of human RPMI8226 cells after 24 hrs; type: functional, cell-based; conditions: RPMI-8226, 24 h
C-33-A [10] = assay: Induction of apoptosis in human C33A cells at 100 ug/ml after 48 hrs by Annexin V-FITC/propidium iodide staining based flow cytometry relative to control; type: functional
HT-29 [11] = assay: Growth inhibition of human HT-29 cells at 2 ml/L after 36 hrs by MTT assay relative to control; type: functional
[12] = Growth inhibition of human GRC1 cells at 0.8 g/L after 48 hrs by MTT assay relative to control; type: functional; conditions: read-out: GI
[13] = Antiproliferative activity against human 95-D cells at 1.5 g/L after 12 to 48 hrs by MTT assay relative to control; type: functional
NB-4 = assay: Induction of apoptosis in human NB4 cells after 24 hrs by Annexin V-FITC/propidium iodide staining based flow cytometry relative to control; type: functional
HepG2 [14] = assay: Antiproliferative activity against human HepG2 cells at 1 mg/ml after 48 hrs relative to control; type: functional
D341 cell line [15] = assay: Growth inhibition of human D341 cells at 1 mg/ml after 72 hrs by CCK8 assay relative to control; type: functional; conditions: D341, 72 h, read-out: GI
HOS-TE85 = assay: Growth inhibition of human MNNG-HOS cells after 48 hrs by MTT assay; type: functional, cell-based; conditions: HOS-TE85, 48 h
D341 cell line [16] = assay: Induction of apoptosis in human D341 cells at 0.5 to 2 mg/ml after 24 to 72 hrs by Annexin V-FITC/propidium iodide staining based flow cytometry (reference value: 5.74 +/- 0.09%); type: functional
HT-29 [17] = assay: Growth inhibition of human HT-29 cells after 24 hrs by MTT assay; type: functional, cell-based; conditions: HT-29, 24 h
SW480 = assay: Antitumor activity against human SW480 cells xenografted in Balb/c mouse assessed as tumor growth inhibition at 30 mg/kg, ip everyday relative to control; type: functional; conditions: read-out: TGI
[18] = Antiproliferative activity against human GBC-SD cells after 24 hrs by MTT assay; type: functional, cell-based
[19] = Growth inhibition of human GRC1 cells at 0.5 g/L after 48 hrs by MTT assay relative to control; type: functional; conditions: read-out: GI
CCRF-CEM [20] = assay: Antiproliferative activity against human CCRF-CEM cells after 48 hrs by WST1 assay; type: functional, cell-based
HT-29 [21] = assay: Growth inhibition of human HT-29 cells at 4 ml/L after 24 hrs by MTT assay relative to control; type: functional
MG-63 = assay: Growth inhibition of human MG63 cells at 0.8 mg/ml after 48 hrs by MTT assay relative to control; type: functional; conditions: MG-63, 48 h, read-out: GI
RPMI-8226 [22] = assay: Growth inhibition of human RPMI8226 cells at 1500 mg/L after 48 hrs by MTT assay relative to control; type: functional; conditions: RPMI-8226, 48 h, read-out: GI
C-33-A [23] = assay: Induction of apoptosis in human C33A cells at 25 ug/ml after 48 hrs by Annexin V-FITC/propidium iodide staining based flow cytometry relative to control; type: functional
UMR108 [24] = assay: Growth inhibition of rat UMR108 cells assessed as cell proliferation at 0.5 mg/ml after 72 hrs by MTT assay (reference value: 0.403 +/- 0.009%); type: functional; conditions: UMR108, 72 h, read-out: Activity
DLD-1 = assay: Growth inhibition of human DLD1 cells after 24 hrs by MTT assay; type: functional, cell-based; conditions: DLD-1, 24 h
HT-29 [25] = assay: Growth inhibition of human HT-29 cells at 2 mg/ml by MTT assay relative to control; type: functional; conditions: read-out: GI
M21 = assay: Induction of apoptosis in human M21 cells at 0.8 mg/ml after 48 hrs by Annexin V-FITC/propidium iodide staining based flow cytometry relative to control; type: functional
KYSE-150 cell line = assay: Antiproliferative activity against human KYSE-150 cells assessed as cell viability at 2 mg/ml after 24 hrs by MTT assay relative to control; type: functional; conditions: KYSE-150, 24 h, read-out: Activity
MCF7 = assay: Induction of apoptosis in human MCF7 cells at 0.25 to 2 mg/ml (reference value: 1.1 +/- 0.08%); type: functional
LoVo = assay: Antiproliferative activity against human LoVo cells after 72 hrs by MTT assay; type: functional, cell-based
SAOS-2 = assay: Growth inhibition of human Saos2 cells at 0.8 mg/ml after 48 hrs by MTT assay relative to control; type: functional; conditions: SAOS-2, 48 h, read-out: GI
RPMI-8226 [26] = assay: Induction of apoptosis in human RPMI8226 cells at 1.5 g/L after 48 hrs by Annexin V-FITC/propidium iodide staining based flow cytometry (Rvb < 3%); type: functional
MM1.S = assay: Growth inhibition of human MM1S cells at […] after 24 hrs relative to control; type: functional; conditions: read-out: GI
HL-60 = assay: Antiproliferative activity against human HL60 cells after 24 hrs by MTT assay; type: functional, cell-based; conditions: HL-60, 24 h
HT-29 [27] = assay: Growth inhibition of human HT-29 cells at 16 ml/L after 36 hrs by MTT assay relative to control; type: functional

O=C1CCC[C@@H]2[C@H]3CCCN4CCC[C@@H](CN12)[C@@H]34 [MATRINE]
inhibition of growth at 500 µg/mL [1]: 22.4% | inhibition of growth at 1500 µg/mL [2]: 32% | Activity (CCRF-CEM [3]): 5.4% | inhibition of growth at 500 µg/mL (HT-29 [4]): 26.9% | Activity (BXPC-3): 9.9% | Activity (SGC-7901): 34.59% | IC50 (HK-2): 4.71 mM | growth at 1500 µg/mL (UMR108 [5]): 0.205% | growth inhibition (GI) (HT-29 [6]): 75.75% | Activity (HepG2 [7]): 44.03% | growth inhibition (GI) (HT-29 [8]): 45.96% | inhibition of growth at 3200 µg/mL (U2OS): 77% | IC50 (RPMI-8226 [9]): 4.35 mM | Activity (C-33-A [10]): 28.91% | growth inhibition (GI) (HT-29 [11]): 22.06% | inhibition of growth at 800 µg/mL [12]: 23.1% | Activity [13]: 30% | Activity (NB-4): 33% | Activity (HepG2 [14]): 48.39% | inhibition of growth at 1000 µg/mL (D341 cell line [15]): 28.3% | IC50 (HOS-TE85): 3.1 mM | Activity (D341 cell line [16]): 56.1% | IC50 (HT-29 [17]): 6.32 to 50.3 mM | inhibition in vivo at 30 mg/kg (SW480): 13.7% | IC50 [18]: 3.6 mM | inhibition of growth at 500 µg/mL [19]: 12.3% | IC50 (CCRF-CEM [20]): 9.67 mM | growth inhibition (GI) (HT-29 [21]): 17.88% | inhibition of growth at 800 µg/mL (MG-63): 20% | inhibition of growth at 1500 µg/mL (RPMI-8226 [22]): 39.4% | Activity (C-33-A [23]): 5.31% | growth at 500 µg/mL (UMR108 [24]): 0.228% | IC50 (DLD-1): 6.32 mM | inhibition of growth at 2000 µg/mL (HT-29 [25]): 52.9% | Activity (M21): 40.3% | viability at 2000 µg/mL (KYSE-150 cell line): 53.7% | Activity (MCF7): 4.17 - 19.63% | IC50 (LoVo): 1.66 mM | inhibition of growth at 800 µg/mL (SAOS-2): 10% | Activity (RPMI-8226 [26]): 32.89% | inhibition of growth at 2 g/mL (MM1.S): 73% | IC50 (HL-60): 0.00366 mM | growth inhibition (GI) (HT-29 [27]): 68.29%
